Columns and labels:
Assay in all cases: KINOMEscan competition binding
Conditions in all cases: compound 10.0 µM
AAK1 (human) = AAK1 (human) (UniProt Q2M2I8)
AKT3 (human) = AKT3 (human) (UniProt Q9Y243)
ANKK1 (human) = ANKK1 (human) (UniProt Q8NFD2)
BLK (human) = BLK (human) (UniProt P51451)
BMPR1B (human) = BMPR1B (human) (UniProt O00238)
CAMK2D (human) = CAMK2D (human) (UniProt Q13557)
CAMKK2 (human) = CAMKK2 (human) (UniProt Q96RR4)
CDC2L2 (human) = CDC2L2 (human) (UniProt Q9UQ88)
CDK17 (human) = CDK17 (human) (UniProt Q00537)
CHEK1 (human) = CHEK1 (human) (UniProt O14757)
CLK1 (human) = CLK1 (human) (UniProt P49759)
CSNK1G1 (human) = CSNK1G1 (human) (UniProt Q9HCP0)
DMPK (human) = DMPK (human) (UniProt Q09013)
[1] = test system: EIF2AK4 KD2 (human), Q9P2K8 [S808G]
EPHB2 (human) = EPHB2 (human) (UniProt P29323)
EPHB3 (human) = EPHB3 (human) (UniProt P54753)
FES (human) = FES (human) (UniProt P07332)
FLT4 (human) = FLT4 (human) (UniProt P35916)
[2] = target: JAK1 JH2 pseudokinase (human) (UniProt P23458)
[3] = target: JAK3 JH1 catalytic (human) (UniProt P52333)
LATS1 (human) = LATS1 (human) (UniProt O95835)
LATS2 (human) = LATS2 (human) (UniProt Q9NRM7)
MAP3K11 (human) = MAP3K11 (human) (UniProt Q16584)
MAPK1 (human) = MAPK1 (human) (UniProt P28482)
MARK1 (human) = MARK1 (human) (UniProt Q9P0L2)
MST1R (human) = MST1R (human) (UniProt Q04912)
NEK1 (human) = NEK1 (human) (UniProt Q96PY6)
NEK2 (human) = NEK2 (human) (UniProt P51955)
PAK2 (human) = PAK2 (human) (UniProt Q13177)
PKN1 (human) = PKN1 (human) (UniProt Q16512)
PRKCD (human) = PRKCD (human) (UniProt Q05655)
PRKCE (human) = PRKCE (human) (UniProt Q02156)
RPS6KA1 KD1 (human) = RPS6KA1 KD1 (human) (UniProt Q15418)
SGK110 (human) = SGK110 (human) (UniProt P0C264)
SRPK1 (human) = SRPK1 (human) (UniProt Q96SB4)
STK16 (human) = STK16 (human) (UniProt O75716)
STK17A (human) = STK17A (human) (UniProt Q9UEE5)
STK17B (human) = STK17B (human) (UniProt O94768)
STK32C (human) = STK32C (human) (UniProt Q86UX6)
[4] = test system: FLT3 (human), P36888 [ITD]

FLT4 (human), sequence (P35916 whole entry, looked up): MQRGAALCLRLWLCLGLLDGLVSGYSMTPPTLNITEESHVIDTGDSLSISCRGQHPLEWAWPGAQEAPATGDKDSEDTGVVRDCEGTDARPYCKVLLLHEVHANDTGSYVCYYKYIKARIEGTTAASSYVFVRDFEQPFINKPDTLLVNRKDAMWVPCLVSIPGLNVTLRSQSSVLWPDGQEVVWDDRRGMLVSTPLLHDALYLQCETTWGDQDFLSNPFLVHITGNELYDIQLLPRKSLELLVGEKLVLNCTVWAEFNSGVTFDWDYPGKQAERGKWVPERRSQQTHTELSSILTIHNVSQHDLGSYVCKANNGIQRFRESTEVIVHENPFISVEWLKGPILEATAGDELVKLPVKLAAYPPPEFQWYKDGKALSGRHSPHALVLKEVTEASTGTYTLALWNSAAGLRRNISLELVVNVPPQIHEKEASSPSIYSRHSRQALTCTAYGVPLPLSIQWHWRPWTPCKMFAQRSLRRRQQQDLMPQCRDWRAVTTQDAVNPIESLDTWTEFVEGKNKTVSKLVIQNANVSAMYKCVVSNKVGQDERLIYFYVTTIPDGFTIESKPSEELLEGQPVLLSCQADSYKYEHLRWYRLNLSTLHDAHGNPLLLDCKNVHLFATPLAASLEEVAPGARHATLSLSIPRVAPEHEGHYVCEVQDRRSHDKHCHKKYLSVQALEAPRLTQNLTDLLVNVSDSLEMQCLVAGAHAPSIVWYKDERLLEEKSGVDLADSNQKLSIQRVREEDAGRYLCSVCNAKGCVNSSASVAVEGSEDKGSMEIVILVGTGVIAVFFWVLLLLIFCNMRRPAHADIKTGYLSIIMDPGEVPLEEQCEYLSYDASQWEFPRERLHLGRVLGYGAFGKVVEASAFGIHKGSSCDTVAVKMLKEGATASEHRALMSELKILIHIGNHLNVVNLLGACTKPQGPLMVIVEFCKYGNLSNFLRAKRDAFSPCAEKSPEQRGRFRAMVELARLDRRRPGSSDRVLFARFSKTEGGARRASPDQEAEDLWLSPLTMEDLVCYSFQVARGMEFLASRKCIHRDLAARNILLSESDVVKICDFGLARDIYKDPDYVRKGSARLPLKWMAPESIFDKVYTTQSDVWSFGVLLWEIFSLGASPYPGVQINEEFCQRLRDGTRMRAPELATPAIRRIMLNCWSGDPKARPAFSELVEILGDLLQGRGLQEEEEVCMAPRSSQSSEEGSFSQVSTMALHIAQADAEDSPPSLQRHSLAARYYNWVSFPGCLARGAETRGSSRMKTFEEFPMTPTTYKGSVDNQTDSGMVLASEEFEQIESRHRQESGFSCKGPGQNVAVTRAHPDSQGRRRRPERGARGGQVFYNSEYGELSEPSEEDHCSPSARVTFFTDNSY
RPS6KA1 KD1 (human), sequence (Q15418 whole entry, looked up): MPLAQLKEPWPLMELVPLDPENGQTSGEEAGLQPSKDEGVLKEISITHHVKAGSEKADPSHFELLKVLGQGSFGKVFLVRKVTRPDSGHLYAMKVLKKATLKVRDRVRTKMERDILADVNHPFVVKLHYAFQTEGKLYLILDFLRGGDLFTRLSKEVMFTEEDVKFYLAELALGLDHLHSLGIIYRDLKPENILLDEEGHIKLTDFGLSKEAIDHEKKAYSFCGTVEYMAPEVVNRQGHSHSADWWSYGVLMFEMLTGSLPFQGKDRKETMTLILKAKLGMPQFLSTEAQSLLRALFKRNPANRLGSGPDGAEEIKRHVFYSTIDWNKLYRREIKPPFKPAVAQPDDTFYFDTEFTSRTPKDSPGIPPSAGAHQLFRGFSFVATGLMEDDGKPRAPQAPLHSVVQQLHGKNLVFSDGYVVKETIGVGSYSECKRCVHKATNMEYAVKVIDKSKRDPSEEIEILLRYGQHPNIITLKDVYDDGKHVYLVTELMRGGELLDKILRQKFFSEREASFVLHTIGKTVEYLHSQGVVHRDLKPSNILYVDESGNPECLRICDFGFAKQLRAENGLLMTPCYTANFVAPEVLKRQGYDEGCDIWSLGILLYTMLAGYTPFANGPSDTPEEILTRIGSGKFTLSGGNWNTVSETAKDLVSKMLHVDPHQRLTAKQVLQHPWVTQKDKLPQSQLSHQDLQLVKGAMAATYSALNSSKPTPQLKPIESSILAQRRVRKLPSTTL
PRKCD (human), sequence (Q05655 whole entry, looked up): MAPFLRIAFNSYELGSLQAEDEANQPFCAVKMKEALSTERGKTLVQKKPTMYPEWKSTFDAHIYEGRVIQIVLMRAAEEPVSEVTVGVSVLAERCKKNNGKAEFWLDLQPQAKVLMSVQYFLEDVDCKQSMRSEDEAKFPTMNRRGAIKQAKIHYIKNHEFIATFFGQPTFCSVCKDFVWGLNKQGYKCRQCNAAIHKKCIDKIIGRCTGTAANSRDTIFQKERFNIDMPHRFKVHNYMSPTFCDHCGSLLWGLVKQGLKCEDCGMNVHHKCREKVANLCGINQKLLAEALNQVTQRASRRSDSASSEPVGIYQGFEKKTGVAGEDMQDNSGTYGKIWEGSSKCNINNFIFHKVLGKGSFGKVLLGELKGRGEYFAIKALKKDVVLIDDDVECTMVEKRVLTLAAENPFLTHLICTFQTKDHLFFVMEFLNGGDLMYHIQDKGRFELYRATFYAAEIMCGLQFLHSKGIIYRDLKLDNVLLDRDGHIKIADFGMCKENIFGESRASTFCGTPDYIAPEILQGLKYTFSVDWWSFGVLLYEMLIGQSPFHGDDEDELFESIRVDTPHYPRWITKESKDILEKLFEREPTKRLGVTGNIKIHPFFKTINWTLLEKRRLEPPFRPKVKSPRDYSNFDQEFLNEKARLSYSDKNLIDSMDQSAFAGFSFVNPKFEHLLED
MST1R (human), sequence (Q04912 whole entry, looked up): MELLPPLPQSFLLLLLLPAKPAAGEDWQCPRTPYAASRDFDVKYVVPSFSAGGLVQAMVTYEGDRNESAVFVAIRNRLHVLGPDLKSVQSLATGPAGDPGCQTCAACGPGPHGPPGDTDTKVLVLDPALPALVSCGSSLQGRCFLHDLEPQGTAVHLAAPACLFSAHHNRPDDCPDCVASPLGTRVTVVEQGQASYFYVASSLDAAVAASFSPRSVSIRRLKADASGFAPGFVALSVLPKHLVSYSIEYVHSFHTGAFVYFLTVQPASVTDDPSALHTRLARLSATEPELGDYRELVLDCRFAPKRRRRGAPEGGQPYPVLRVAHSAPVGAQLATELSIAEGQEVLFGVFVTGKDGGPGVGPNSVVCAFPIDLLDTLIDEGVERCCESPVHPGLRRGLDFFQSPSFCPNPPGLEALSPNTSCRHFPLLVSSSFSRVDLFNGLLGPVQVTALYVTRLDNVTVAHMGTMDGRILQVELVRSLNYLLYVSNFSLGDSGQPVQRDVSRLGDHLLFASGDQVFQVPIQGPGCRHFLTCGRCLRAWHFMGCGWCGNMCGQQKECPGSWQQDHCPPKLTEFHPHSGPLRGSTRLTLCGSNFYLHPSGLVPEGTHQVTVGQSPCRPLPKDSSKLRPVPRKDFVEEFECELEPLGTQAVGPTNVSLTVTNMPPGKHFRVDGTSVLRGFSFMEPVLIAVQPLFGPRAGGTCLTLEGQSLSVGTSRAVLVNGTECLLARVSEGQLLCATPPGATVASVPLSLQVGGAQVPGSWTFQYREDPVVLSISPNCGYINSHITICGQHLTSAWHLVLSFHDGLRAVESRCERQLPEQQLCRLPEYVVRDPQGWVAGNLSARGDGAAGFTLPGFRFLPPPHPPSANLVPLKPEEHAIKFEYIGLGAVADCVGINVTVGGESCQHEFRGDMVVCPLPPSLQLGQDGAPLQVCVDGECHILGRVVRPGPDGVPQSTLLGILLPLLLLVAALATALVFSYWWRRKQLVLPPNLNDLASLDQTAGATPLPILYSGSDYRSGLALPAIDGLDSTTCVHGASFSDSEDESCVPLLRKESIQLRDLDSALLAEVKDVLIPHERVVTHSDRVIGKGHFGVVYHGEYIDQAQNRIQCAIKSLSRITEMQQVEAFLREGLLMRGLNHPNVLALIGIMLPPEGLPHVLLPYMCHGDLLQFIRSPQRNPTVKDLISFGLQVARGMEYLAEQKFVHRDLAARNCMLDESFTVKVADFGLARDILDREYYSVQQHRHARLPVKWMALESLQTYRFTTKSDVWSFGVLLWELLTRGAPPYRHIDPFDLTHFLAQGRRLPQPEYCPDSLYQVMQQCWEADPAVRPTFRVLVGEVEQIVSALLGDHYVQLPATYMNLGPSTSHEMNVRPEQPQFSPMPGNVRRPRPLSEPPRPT
STK17B (human), sequence (O94768 whole entry, looked up): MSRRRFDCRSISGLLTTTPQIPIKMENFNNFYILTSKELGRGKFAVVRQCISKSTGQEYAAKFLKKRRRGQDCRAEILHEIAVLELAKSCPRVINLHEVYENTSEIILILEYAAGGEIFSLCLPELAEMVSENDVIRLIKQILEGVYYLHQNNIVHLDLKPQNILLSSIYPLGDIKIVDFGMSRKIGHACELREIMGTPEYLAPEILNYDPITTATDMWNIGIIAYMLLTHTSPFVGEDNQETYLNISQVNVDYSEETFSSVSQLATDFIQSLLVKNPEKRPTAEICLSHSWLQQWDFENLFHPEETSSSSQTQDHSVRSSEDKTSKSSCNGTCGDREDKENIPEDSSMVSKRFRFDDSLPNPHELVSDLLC
NEK2 (human), sequence (P51955 whole entry, looked up): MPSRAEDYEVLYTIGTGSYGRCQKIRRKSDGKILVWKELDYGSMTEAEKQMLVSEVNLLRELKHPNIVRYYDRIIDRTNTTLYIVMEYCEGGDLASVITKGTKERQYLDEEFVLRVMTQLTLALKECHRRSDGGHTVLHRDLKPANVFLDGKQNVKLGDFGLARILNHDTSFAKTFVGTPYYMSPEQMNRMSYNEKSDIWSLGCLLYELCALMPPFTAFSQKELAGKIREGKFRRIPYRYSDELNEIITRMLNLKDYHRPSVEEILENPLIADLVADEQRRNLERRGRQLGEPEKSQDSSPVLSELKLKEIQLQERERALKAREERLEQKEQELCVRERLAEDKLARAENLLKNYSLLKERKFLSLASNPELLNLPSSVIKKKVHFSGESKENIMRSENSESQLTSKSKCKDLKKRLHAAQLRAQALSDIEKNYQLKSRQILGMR

Row | Compound | kinase still bound, per cent of control (AAK1 (human)) | kinase still bound, per cent of control (AKT3 (human)) | kinase still bound, per cent of control (ANKK1 (human)) | kinase still bound, per cent of control (BMPR1B (human)) | kinase still bound, per cent of control (CAMK2D (human)) | kinase still bound, per cent of control (CAMKK2 (human)) | kinase still bound, per cent of control (CDK17 (human)) | kinase still bound, per cent of control (CHEK1 (human)) | kinase still bound, per cent of control (CLK1 (human)) | kinase still bound, per cent of control (CSNK1G1 (human)) | kinase still bound, per cent of control (DMPK (human)) | kinase still bound, per cent of control [1] | kinase still bound, per cent of control (EPHB2 (human)) | kinase still bound, per cent of control (EPHB3 (human)) | kinase still bound, per cent of control (FES (human)) | kinase still bound, per cent of control (FLT4 (human)) | kinase still bound, per cent of control [2] | kinase still bound, per cent of control (LATS1 (human)) | kinase still bound, per cent of control (LATS2 (human)) | kinase still bound, per cent of control (MAP3K11 (human)) | further results
1 | Cc1ccc2nc(NCCN)c3ncc(C)n3c2c1 | 78% | 100% | 99% | 71% | 100% | 93% | 92% | 91% | 72% | 94% | 100% | 98% | 100% | 100% | 100% | 100% | 47% | 100% | 100% | 87% | kinase still bound, per cent of control (BLK (human)): 100%; kinase still bound, per cent of control (CDC2L2 (human)): 1%; kinase still bound, per cent of control [3]: 100%; kinase still bound, per cent of control (MAPK1 (human)): 97%; kinase still bound, per cent of control (MARK1 (human)): 100%; kinase still bound, per cent of control (MST1R (human)): 100%; kinase still bound, per cent of control (NEK1 (human)): 78%; kinase still bound, per cent of control (NEK2 (human)): 100%; kinase still bound, per cent of control (PAK2 (human)): 94%; kinase still bound, per cent of control (PKN1 (human)): 92%; kinase still bound, per cent of control (PRKCD (human)): 100%; kinase still bound, per cent of control (PRKCE (human)): 100%; kinase still bound, per cent of control (RPS6KA1 KD1 (human)): 79%; kinase still bound, per cent of control (SGK110 (human)): 100%; kinase still bound, per cent of control (SRPK1 (human)): 100%; kinase still bound, per cent of control (STK16 (human)): 100%; kinase still bound, per cent of control (STK17A (human)): 68%; kinase still bound, per cent of control (STK17B (human)): 100%; kinase still bound, per cent of control (STK32C (human)): 94%
2 | COc1cc(N2CCN(C)CC2)ccc1Nc1nc(N)c(C(=O)c2c(Cl)cccc2Cl)s1 | 61% | 100% | 96% | 90% | 23% | 14% | 42% | 79% | 22% | 100% | 50% | 100% | 100% | 0% | 45% | 100% | 100% | 100% | 100% | 96% | kinase still bound, per cent of control [4]: 87%; kinase still bound, per cent of control [3]: 100%; kinase still bound, per cent of control (MAPK1 (human)): 100%; kinase still bound, per cent of control (MST1R (human)): 96%; kinase still bound, per cent of control (NEK1 (human)): 75%; kinase still bound, per cent of control (NEK2 (human)): 100%; kinase still bound, per cent of control (PAK2 (human)): 100%; kinase still bound, per cent of control (PKN1 (human)): 100%; kinase still bound, per cent of control (PRKCD (human)): 68%; kinase still bound, per cent of control (PRKCE (human)): 68%; kinase still bound, per cent of control (RPS6KA1 KD1 (human)): 100%; kinase still bound, per cent of control (SGK110 (human)): 100%; kinase still bound, per cent of control (SRPK1 (human)): 100%; kinase still bound, per cent of control (STK16 (human)): 90%; kinase still bound, per cent of control (STK17A (human)): 100%; kinase still bound, per cent of control (STK17B (human)): 73%; kinase still bound, per cent of control (STK32C (human)): 99%
3 | Cc1cc([C@@H](C)Nc2ccccc2C(=O)O)c2nc(N3CCOCC3)cc(=O)n2c1 | 95% | 100% | 100% | 69% | 95% | 100% | 100% | 100% | 74% | 68% | 100% | 100% | 100% | 100% | 94% | 95% | 100% | 100% | 63% | 100% | kinase still bound, per cent of control (BLK (human)): 99%; kinase still bound, per cent of control (CDC2L2 (human)): 100%; kinase still bound, per cent of control [4]: 53%; kinase still bound, per cent of control [3]: 94%; kinase still bound, per cent of control (MAPK1 (human)): 100%; kinase still bound, per cent of control (MARK1 (human)): 100%; kinase still bound, per cent of control (NEK1 (human)): 85%; kinase still bound, per cent of control (NEK2 (human)): 71%; kinase still bound, per cent of control (PAK2 (human)): 100%; kinase still bound, per cent of control (PKN1 (human)): 100%; kinase still bound, per cent of control (PRKCD (human)): 82%; kinase still bound, per cent of control (PRKCE (human)): 100%; kinase still bound, per cent of control (RPS6KA1 KD1 (human)): 73%; kinase still bound, per cent of control (SGK110 (human)): 100%; kinase still bound, per cent of control (SRPK1 (human)): 100%; kinase still bound, per cent of control (STK16 (human)): 77%; kinase still bound, per cent of control (STK17A (human)): 98%; kinase still bound, per cent of control (STK17B (human)): 100%; kinase still bound, per cent of control (STK32C (human)): 82%
4 | O=C(O)c1ccc(Nc2ncc3c(n2)-c2ccc(Cl)cc2C(c2c(F)cccc2F)=NC3)cc1 | 90% | 100% | 100% | 86% | 95% | 72% | 100% | 91% | 63% | 37% | 79% | 79% | 50% | 29% | 100% | 18% | 80% | 98% | 72% | 84% | kinase still bound, per cent of control (BLK (human)): 0.7%; kinase still bound, per cent of control (CDC2L2 (human)): 100%; kinase still bound, per cent of control [4]: 87%; kinase still bound, per cent of control (MAPK1 (human)): 100%; kinase still bound, per cent of control (MARK1 (human)): 100%; kinase still bound, per cent of control (MST1R (human)): 92%; kinase still bound, per cent of control (NEK1 (human)): 56%; kinase still bound, per cent of control (NEK2 (human)): 73%; kinase still bound, per cent of control (PAK2 (human)): 71%; kinase still bound, per cent of control (PKN1 (human)): 83%; kinase still bound, per cent of control (PRKCD (human)): 100%; kinase still bound, per cent of control (PRKCE (human)): 72%; kinase still bound, per cent of control (SGK110 (human)): 58%; kinase still bound, per cent of control (SRPK1 (human)): 100%; kinase still bound, per cent of control (STK16 (human)): 30%; kinase still bound, per cent of control (STK17A (human)): 1.9%; kinase still bound, per cent of control (STK17B (human)): 8.6%; kinase still bound, per cent of control (STK32C (human)): 50%
